Assay results as given in publication PMC10708537, “Tetrahydrocurcumin Derivatives Enhanced the Anti-Inflammatory Activity of Curcumin: Synthesis, Biological Evaluation, and Structure–Activity Relationship Analysis” (Molecules, 2023).
Entries after “also recorded” stand apart in the source; their conditions may differ. Read-outs that look alike come from different tables or passages of the source.

Experiments:
IL-6 = experiment: LPS-induced IL-6 production in peritoneal macrophages (ELISA); format: cell-based, C57BL/6 mice
Procedure: (§1) Peritoneal macrophages were obtained by washing the peritoneal cavities of C57B1/6 mice five days after intraperitoneal instillation of 2 mL of 3% thioglycollate. Macrophages were seeded in RPMI containing 10% FCS at 2 × 10^5 cells/well in 96-well plates and cultured for 2 h at 37 °C under a 5% CO2 atmosphere. Adherent cells were pretreated with the compounds (30 μM) 1 h before stimulation with LPS (10 ng/mL). For dose–response experiments, compounds were used at concentrations of 1, 3, 10, and 30 μM. Supernatants were collected 6 h after LPS stimulation. Control and experimental treatments were performed in the presence of 0.5% DMSO, as the compounds were solubilized in this solvent. The concentrations of TNF-α, IL-6, and PGE2 were determined by ELISA (R&D System) following the manufacturer’s protocol.
(§2) Results from the cytokine measurements and cytotoxicity assays were analyzed using the statistical software package GraphPad Prism 9.4.0. All data are presented as the mean ± S.E.M. Statistical analysis was performed by Student’s t-test. The differences between samples were considered significant when p < 0.05. The 50% inhibitory concentration (IC50) was calculated by adjusting a sigmoidal dose–response curve following the standard procedure in GraphPad Prism 5.

PGE2 = experiment: LPS-induced PGE2 production in peritoneal macrophages (ELISA); format: cell-based, C57BL/6 mice; conditions: 30 μM, LPS 10 ng/mL, 6 h (Figure 6)
Procedure: as §1

[1] = tested on: macrophages from the peritoneal cavities of C57BL/6 mice; experiment: MTT cytotoxicity assay on macrophages; format: cell-based; conditions: 30 μM, after supernatant collection (Figure 4C)
Procedure: After removing the supernatants, 100 μL of 0.5 mg/mL MTT in RPMI was added to each well. Cells were incubated overnight at 37 °C, and formazan crystals were dissolved in 100 µL of 0.04 M HCl in isopropanol. Then, the absorbance was measured at 570 nm using an ELISA plate reader. Cell viability was calculated using the following formula: % viability: [(OD sample) × 100%]/(OD control). Nonstimulated cells represented 100% viability.

TNF-α = experiment: LPS-induced TNF-α production in peritoneal macrophages (ELISA); format: cell-based, C57BL/6 mice; conditions: for IC50: macrophages pretreated 1 h, supernatant 6 h, two independent experiments in triplicate, read-out: IC50 ± S.D. (μM) TNF-α
Procedure: as §1, §2

[2] = Mus musculus, Macrophage, macrophages pretreated 1 h, LPS 10 ng/mL, supernatant 6 h, two independent experiments in triplicate, read-out: IC50 ± S.D. (μM) IL-6
[3] = Mus musculus, Peritoneal macrophage, converted from IL-6 IC50 of this work, used for 3D-QSAR, read-out: Experimental pIC50 (converted)
[4] = dose-response, 10 µM (Figure 5B)
[5] = Mus musculus, Macrophage, LPS 10 ng/mL
[6] = dose-response, lowest concentration 1 µM (Figure 5B)
[7] = dose-response, all concentrations tested (1, 3, 10, 30 μM) (Figure 5A)
[8] = single concentration 30 μM, LPS 10 ng/mL, 6 h (Figure 4A)

C#CCOC(=O)CCC(=O)Oc1ccc(CCC(=O)/C=C(\O)CCc2ccc(OC(=O)CCC(=O)OCC#C)c(OC)c2)cc1OC [Compound 3, (Z)-O,O′-((3-Hydroxy-5-oxohept-3-ene-1,7-diyl)bis(2-methoxy-4,1-phenylene)) di(prop-2-yn-1-yl) Disuccinate]
inhibition of IL-6 production (IL-6; single concentration 30 μM, LPS 10 ng/mL, 6 h (Figure 4B)): All compounds, except compound 3, inhibited the production of IL-6 | reduction of PGE2 production (PGE2): significantly reduced; also recorded: highest activity

COc1cc(CCC(=O)/C=C(\O)CCc2ccc(OC(=O)CCC(=O)OC3c4ccccc4-c4ccccc43)c(OC)c2)ccc1OC(=O)CCC(=O)OC1c2ccccc2-c2ccccc21 [Compound 4, (Z)-di(9H-Fluoren-9-yl)O,O′-((3-hydroxy-5-oxohept-3-ene-1,7-diyl)bis(2-methoxy-4,1-phenylene)) Disuccinate]
IC50 (IL-6; [2]): 4.28 ± 4.88 µM | IC50 (IL-6; [3]): 4.27 µM | inhibition of IL-6 production (IL-6; [4]): inhibited

COc1cc(CCC(=O)/C=C(\O)CCc2ccc(OC(=O)CCC(=O)OC3Cc4ccccc4C3)c(OC)c2)ccc1OC(=O)CCC(=O)OC1Cc2ccccc2C1 [Compound 5, (Z)-bis(2,3-Dihydro-1H-inden-2-yl) O,O′-((3-hydroxy-5-oxohept-3-ene-1,7-diyl)bis(2-methoxy-4,1-phenylene)) Disuccinate]
IC50 (IL-6; [2]): 9.13 ± 5.9 µM | IC50 (IL-6; [3]): 9.12 µM

COc1cc(CCC(=O)/C=C(\O)CCc2ccc(OC(=O)CCC(=O)OC(c3ccccc3)c3ccccc3)c(OC)c2)ccc1OC(=O)CCC(=O)OC(c1ccccc1)c1ccccc1 [Compound 6, (Z)-Dibenzhydryl O,O′-((3-hydroxy-5-oxohept-3-ene-1,7-diyl)bis(2-methoxy-4,1-phenylene)) Disuccinate]
cytotoxicity (cell viability, MTT) [1]: cytotoxic

COc1cc(CC/C(O)=C/C(=O)CCc2ccc(OC(=O)CCC(=O)O[C@@H]3C[C@H](C)CC[C@H]3C(C)C)c(OC)c2)ccc1OC(=O)CCC(=O)O[C@@H]1C[C@@H](C)CC[C@@H]1C(C)C [Compound 7, O,O′-(((Z)-3-Hydroxy-5-oxohept-3-ene-1,7-diyl)bis(2-methoxy-4,1-phenylene)) bis((1R,2S,5R)-2-Isopropyl-5-methylcyclohexyl) Disuccinate]
cytotoxicity (cell viability, MTT) [1]: cytotoxic

COc1cc(CCC(=O)/C=C(\O)CCc2ccc(OC(=O)CCC(=O)OC3CCCc4ccccc43)c(OC)c2)ccc1OC(=O)CCC(=O)OC1CCCc2ccccc21 (stereo not shown) [Compound 8, (Z)-O,O′-((3-Hydroxy-5-oxohept-3-ene-1,7-diyl)bis(2-methoxy-4,1-phenylene)) bis(1,2,3,4-Tetrahydronaphthalen-1-yl) Disuccinate]
IC50 (TNF-α; [5]): 3.21 ± 4.52 µM | IC50 (IL-6; [2]): 3.48 ± 4.39 µM | IC50 (IL-6; [3]): 3.47 µM | inhibition of IL-6 production (IL-6; [4]): inhibited

COc1cc(CCC(=O)/C=C(\O)CCc2ccc(OC(=O)CCC(=O)OCc3ccccc3)c(OC)c2)ccc1OC(=O)CCC(=O)OCc1ccccc1 [Compound 9, (Z)-Dibenzyl O,O′-((3-Hydroxy-5-oxohept-3-ene-1,7-diyl)bis(2-methoxy-4,1-phenylene)) Disuccinate]
cytotoxicity (cell viability, MTT) [1]: cytotoxic

COc1cc(CCC(=O)/C=C(\O)CCc2ccc(OC(=O)CCC(=O)OC3CCCC3)c(OC)c2)ccc1OC(=O)CCC(=O)OC1CCCC1 [Compound 10, (Z)-Dicyclopentyl O,O′-((3-Hydroxy-5-oxohept-3-ene-1,7-diyl)bis(2-methoxy-4,1-phenylene)) Disuccinate]
IC50 (IL-6; [2]): 3.66 ± 4.21 µM | IC50 (IL-6; [3]): 3.63 µM

COC(=O)CCC(=O)Oc1ccc(CCC(=O)/C=C(\O)CCc2ccc(OC(=O)CCC(=O)OC)c(OC)c2)cc1OC [Compound 11, (Z)-O,O′-((3-Hydroxy-5-oxohept-3-ene-1,7-diyl)bis(2-methoxy-4,1-phenylene)) dimethyl Disuccinate]
inhibition of TNF-α production (TNF-α; dose-response, 3 µM (Figure 5A)): showed an effect only when used at a concentration of 3 µM | IC50 (IL-6; [2]): 0.17 ± 0.21 µM | IC50 (IL-6; [3]): 0.17 µM | inhibition of IL-6 production (IL-6; [6]): inhibited | reduction of PGE2 production (PGE2): significantly reduced; also recorded: highest activity

C=CCOC(=O)CCC(=O)Oc1ccc(CCC(=O)/C=C(\O)CCc2ccc(OC(=O)CCC(=O)OCC=C)c(OC)c2)cc1OC [Compound 12, (Z)-Diallyl O,O′-((3-hydroxy-5-oxohept-3-ene-1,7-diyl)bis(2-methoxy-4,1-phenylene)) Disuccinate]
IC50 (TNF-α; [5]): 0.7 ± 0.1 µM | inhibition of TNF-α production (TNF-α; [7]): inhibited | inhibition of TNF-α production (TNF-α; [8]): inhibited | IC50 (IL-6; [2]): 0.72 ± 0.38 µM | IC50 (IL-6; [3]): 0.724 µM | inhibition of IL-6 production (IL-6; [6]): inhibited | reduction of PGE2 production (PGE2): significantly reduced; also recorded: highest activity; also recorded: more biologically active than tetrahydrocurcumin

Curcumin [Compound 1, reference compound]
IC50 (IL-6; Table S1, compounds presented in the current work, read-out: IC50 ± S.D. (uM) IL-6): 6.85 ± 2.5 µM

Tetrahydrocurcumin [Compound 2, reference compound]
inhibition of TNF-α production (TNF-α; [7]): inhibited | IC50 (TNF-α; LPS 10 ng/mL): 0.18 ± 0.18 µM | inhibition of TNF-α production (TNF-α; [8]): inhibited | Experimental pIC50 (IL-6; converted from IL-6 IC50 of this work, used for 3D-QSAR): 6.77 | inhibition of IL-6 production (IL-6; [4]): inhibited | inhibition of IL-6 production (IL-6; [6]): inhibited | IC50 (IL-6; macrophages pretreated 1 h, LPS 10 ng/mL, supernatant 6 h, two independent experiments in triplicate, read-out: IC50 ± S.D. (μM) IL-6): 0.17 ± 0.2 µM | reduction of PGE2 production (PGE2): but not PGE2 production
